From PubChem BioAssay AID1626 (SRMLSC, 2009)

Test system: M. tuberculosis H37Rv growth inhibition
Assay: M. tuberculosis H37Rv growth inhibitors, H37Rv strain (AID 1626)
Conditions: for IC90: measured here: IC90 against H37Rv; for CC50: measured here: Vero cell cytotoxicity

CN(C)c1ccc(/C=C/C=C2/C(=O)NC(=O)N(c3ccccc3)C2=O)cc1
IC50: 2.5 µM | IC90: 4.66 µM | CC50: > 40 µM

O=C(CC(=O)c1ccccc1O)c1cccc(F)c1
IC50: 18.4 µM | IC90: 29.2 µM | CC50: > 40 µM

CCCC(=O)Nc1cccc(-c2nc3ccccc3c(=O)o2)c1
IC50: 5.72 µM | IC90: 12.1 µM

CCCCOc1ccc(NC(=O)C2CC=CCC2C(=O)O)cc1 (configuration not stated)
IC50: 75.7 µM | IC90: > 100 µM

Cc1ccc(C(=O)/C=C/C(=O)c2ccc(C)cc2)cc1
IC50: 5.49 µM | IC90: 9.24 µM | CC50: > 40 µM

Nc1scc(-c2ccncc2)c1Cl
IC50: 5.32 µM | IC90: > 100 µM | CC50: > 40 µM

Cc1ccc(OCCC(=O)Nc2ccc(C)c(F)c2)cc1
IC90: > 100 µM

O=C(CSc1nc2ccccc2o1)Nc1nc(-c2ccccc2)c(-c2ccccc2)s1
IC50: 10.1 µM | IC90: > 100 µM | CC50: > 40 µM

O=c1[nH][nH]c(-c2ccccc2O)c1C(C[N+](=O)[O-])c1ccc(Br)cc1 (configuration not stated)
IC50: 11.2 µM | IC90: 24.5 µM | CC50: 18.2 µM

CCOc1ccc(N=Cc2c(O)n(C(C)(C)C)c(=O)[nH]c2=O)cc1
IC50: < 0.195 µM | IC90: > 100 µM

CC1Cc2ccccc2N1C(=O)COC(=O)c1ccc(Br)o1 (configuration not stated)
IC50: 16 µM | IC90: > 100 µM

CCC(/C=C1\Sc2ccc(OC)cc2N1CCO)=C\c1sc2ccc(OC)cc2[n+]1CCO
IC50: 7.29 µM | IC90: 10.2 µM

Cc1ccc(-n2nnnc2Sc2nc([N+](=O)[O-])nn2C)cc1C
IC50: 7.23 µM | IC90: 13.2 µM | CC50: 37.6 µM

c1ccc(CN2CCN(c3nc(NCc4ccco4)c4ccccc4n3)CC2)cc1
IC50: 7.96 µM | IC90: 10.3 µM | CC50: 35.1 µM

O=C(CSc1nnc(-c2ccco2)o1)c1ccccc1Cl
IC90: > 100 µM

O=c1oc2ccccc2nc1/C=C(O)/C=C\c1ccccc1
IC50: 4.33 µM | IC90: 13.1 µM

Cc1cc(C)cc(NC(=O)c2ccc([N+](=O)[O-])o2)c1
IC50: 9.59 µM | IC90: 22.6 µM | CC50: 9.81 µM

CC1Cc2ccccc2N1C(=O)COC(=O)c1ccc(Cl)nc1 (configuration not stated)
IC50: 10.7 µM | IC90: > 100 µM

COC(=O)CC(=O)N1CCN(c2ccc(Cl)c(Cl)c2)CC1
IC50: 11.9 µM | IC90: 25.2 µM

S=c1[nH]cnc2sc(-c3ccccc3)cc12
IC50: 8.3 µM | IC90: > 100 µM

Cc1cc(C)c(N=Cc2c(O)n(-c3nccs3)c(=O)c3ccccc23)c(C)c1
IC50: 13.1 µM | IC90: 71.4 µM

CCc1sc(N)nc1-c1ccccc1
IC90: > 100 µM

CCOC(=O)c1sc(NC(=O)CNCc2ccccn2)c(C(=O)OCC)c1C
IC50: 2.77 µM | IC90: 4.22 µM | CC50: > 40 µM

O=C(Nc1ccc2c(c1)OCCO2)c1cccc2nc3ccccc3nc12
IC50: < 0.195 µM | IC90: 2.17 µM | CC50: > 40 µM

CCc1nc(NCc2ccc3c(c2)OCO3)c2oc3ccccc3c2n1
IC50: 8.85 µM | IC90: 17 µM | CC50: > 40 µM

O=C(NC1CCCCC1)C(c1ccc2ncccc2c1)N(Cc1ccccc1)C(=O)c1ccc2c(c1)OCCO2 (configuration not stated)
IC50: 19 µM | IC90: 28.2 µM

Cc1ccc(-c2nn(-c3ccccc3)cc2NC(=O)CCl)cc1
IC50: 29.6 µM | IC90: > 100 µM | CC50: 27.1 µM

Cc1c(Cc2ccccc2)c(NCCCO)n2c(nc3ccccc32)c1C#N
IC50: 2.9 µM | IC90: 3.35 µM

c1ccc(-c2nc(N3CCCCCC3)c3ccccc3n2)nc1
IC50: 0.304 µM | IC90: 0.318 µM | CC50: 4.21 µM

O=C(CSc1ccccn1)Nc1ccc2c(c1)oc1ccccc12
IC50: < 0.195 µM | IC90: > 100 µM

CCCCOC(=O)c1ccc(NC(=O)C2CCCO2)cc1 (configuration not stated)
IC50: 14.2 µM | IC90: > 100 µM

Clc1nc(-c2ccccn2)nc2scc(-c3ccccc3)c12
IC50: 9.23 µM | IC90: 15.5 µM | CC50: 19.9 µM

Cc1[nH]n(-c2ccccc2)c(=O)c1N=Nc1nccs1
IC50: 2.8 µM | IC90: 5.14 µM | CC50: 29.5 µM

CC(C)Nc1ccc(Nc2ccnc3cc4ccccc4cc23)cc1
IC50: 5.31 µM | IC90: 9.7 µM | CC50: 3.3 µM
